Experimental data taken from patent publication US9403812B2, “Triazole derivatives as Wnt signaling pathway inhibitors” (OSLO UNIVERSITY HOSPITAL, HF, priority 2010, dated 2016).

Columns and labels:
[1] = Stability in human liver microsomes; format: in vitro ADME; conditions: both sexes, pooled human liver microsomes, 0.5 mg/mL protein, 3 μM compound, pH 7.4, 37° C., NADPH, read-out: T ½ human liver microsomes
Description: Pooled human or rat liver microsomes (pooled male and female) were prepared and stored at −80° C. prior to use. […] The final incubation volume was 25 μL. A control incubation was included for each compound tested in which 0.1M phosphate buffer (pH 7.4) was added instead of NADPH (minus NADPH). Two control compounds were included with each species. All incubations were performed singularly for each test compound.
The reactions were stopped by the addition of 50 μL methanol containing internal standard at the appropriate time points. The incubation plates were centrifuged at 2,500 rpm for 20 mins at 4° C. to precipitate the protein.
Following protein precipitation, the sample supernatants were combined in cassettes of up to 4 compounds and analysed using Cyprotex generic LC-MS/MS conditions. […] The time point at which 30-50% of parent had degraded could then be investigated at 3 different levels of metabolite profiling and/or identification.
From a plot of ln peak area ratio (compound peak area/internal standard peak area) against time, the gradient of the line is determined. Subsequently, half-life and intrinsic clearance are calculated using the equations below: Elimination rate constant (k)=(−gradient)
[formula] [formula] • where V=Incubation volume (μL/mg microsomal protein).

STF/REN HEK293 cells = experiment: Wnt3a-induced ST-Luc/Renilla luciferase reporter assay in STF/REN HEK293 cells; format: cell-based; conditions: Homo sapiens, 24 hours compound in 50% Wnt3a conditioned media, average of multiple experiments
Description: HEK293 cells (80,000 cells per well) were seeded in 96-well plates coated with poly-L lysine. 24 hours after seeding, the cells were incubated for an additional 24 hours with various compound concentrations in 50% Wnt3a containing conditioned media (from L Wnt3a-expressing cells (ATCC)). A minimum of three replicates was used for each sample. After compound exposure, the cells were lysed and the firefly luciferase and Renilla activities were measured on a GloMax® 96 Microplate Luminometer with Dual Injectors (Promega).
XLfit (idbs) was used to determine the IC50 values in inhibition experiments. The data were fit to the following formula:
IC50: Langmuir Binding Isotherm: fit=((A+(B*x))+(((C−B)*(1−exp((−1*D)*x)))/D)) res=(y−fit)
All values shown are average values from multiple experiments.

COLO320DM cells = experiment: IncuCyte cell proliferation assay, COLO320DM; format: cell-based; conditions: 0.1, 1, 5 μmol/L
Description: (§1) All cells were purchased from ATCC (American Type Culture Collection) and maintained according to the supplier's recommendations. Cells used were RKO, HCT-15, WiDr, HT29, DLD-1, COLO320DM and COLO205 cells. 1,000 cells were seeded in 96-well plates with the recommended media. […] All samples were assessed in a minimum of six replicates. Plates were incubated in an IncuCyte™ (Essen BioScience) inside a cell culture incubator. Images were captured every second hour to monitor cell proliferation. Mutations in the Adenomatouse Polyposis Coli (APC) gene, which occur in most colorectal cancers (CRC), lead to ineffective degradation of β-catenin and aberrant up-regulation of Wnt signaling. As a result, CRC cells may undergo cell cycle arrest as a result of antagonized canonical Wnt. Therefore, the kinetics of cell proliferation was monitored in selected Wnt responsive CRC cell lines by using an IncuCyte life tracking system.

HT29 cells = experiment: IncuCyte cell proliferation assay, HT29; format: cell-based; conditions: 0.1, 1, 5 μmol/L
Description: as §1

HCT-15 cells = experiment: IncuCyte cell proliferation assay, HCT-15; format: cell-based; conditions: 0.1, 1, 5 μmol/L
Description: as §1

WiDr cells = experiment: IncuCyte cell proliferation assay, WiDr; format: cell-based; conditions: 0.1, 1, 5 μmol/L
Description: as §1

β-catenin = experiment: Immunostaining of β-catenin in SW480 cells; format: cell-based; conditions: 500 nmol/L, 18 hours, immunofluorescence
Description: (§2) After incubation, the cells were fixed in 4% PFA in PBS for 10 minutes. Immunostaining was performed as described in standard protocols. Primary antibodies used were β-catenin (610153, BD Transduction Laboratories™) or AXIN2 (76G6, Cell Signaling Technology). Secondary antibodies used were DyLight549 (555) donkey-anti-mouse and Cy2-donkey-anti-rabbit (both Jackson ImmunoResearch, 1:1000). The samples were imaged using a Zeiss Axiovert 200M Fluorescence/Live cell Imaging Microscope at 40 times magnification. A Zeiss LSM780 at 63 times magnification was used for confocal microscopy

PARP1 = target: T1, PARP1 (Homo sapiens, UniProt P09874); experiment: Chemiluminescent Assay Kit, PARP1; format: biochemical
T1 construct: purchased BPS Bioscience, Nordic Biosite 80551
T1 sequence (P09874 whole entry): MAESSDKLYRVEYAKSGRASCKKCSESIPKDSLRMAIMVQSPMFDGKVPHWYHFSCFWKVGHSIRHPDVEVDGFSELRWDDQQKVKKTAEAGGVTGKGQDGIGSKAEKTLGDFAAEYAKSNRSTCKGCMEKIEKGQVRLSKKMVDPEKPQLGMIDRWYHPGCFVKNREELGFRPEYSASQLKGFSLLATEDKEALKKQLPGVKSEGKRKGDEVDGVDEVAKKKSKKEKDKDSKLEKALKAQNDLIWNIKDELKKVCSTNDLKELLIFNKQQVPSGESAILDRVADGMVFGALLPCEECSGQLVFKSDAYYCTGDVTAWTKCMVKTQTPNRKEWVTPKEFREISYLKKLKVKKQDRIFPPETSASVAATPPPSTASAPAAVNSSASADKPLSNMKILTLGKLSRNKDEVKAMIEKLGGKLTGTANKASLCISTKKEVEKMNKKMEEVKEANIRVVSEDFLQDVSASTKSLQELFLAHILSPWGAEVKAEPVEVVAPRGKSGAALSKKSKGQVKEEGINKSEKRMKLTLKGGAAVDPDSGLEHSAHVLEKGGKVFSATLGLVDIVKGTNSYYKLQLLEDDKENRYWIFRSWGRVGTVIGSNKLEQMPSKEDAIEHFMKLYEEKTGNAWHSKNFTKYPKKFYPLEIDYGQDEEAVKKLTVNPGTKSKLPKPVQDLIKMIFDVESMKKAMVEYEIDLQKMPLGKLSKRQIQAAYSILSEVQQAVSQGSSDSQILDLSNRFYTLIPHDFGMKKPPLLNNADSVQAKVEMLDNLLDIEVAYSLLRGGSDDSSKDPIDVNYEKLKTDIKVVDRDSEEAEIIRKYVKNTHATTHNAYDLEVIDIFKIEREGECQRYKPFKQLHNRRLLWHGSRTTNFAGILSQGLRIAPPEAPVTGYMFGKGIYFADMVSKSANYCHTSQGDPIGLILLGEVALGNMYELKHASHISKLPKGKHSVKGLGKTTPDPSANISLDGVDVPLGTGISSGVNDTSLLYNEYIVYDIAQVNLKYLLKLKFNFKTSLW

COLO205 cells = experiment: IncuCyte cell proliferation assay, COLO205; format: cell-based; conditions: 0.1, 1, 5 μmol/L
Description: as §1

RKO cells = experiment: IncuCyte cell proliferation assay, RKO; format: cell-based; conditions: RKO (Wnt-independent control, wild type APC); 0.1, 1, 5 μmol/L
Description: as §1

DLD-1 cells = experiment: IncuCyte cell proliferation assay, DLD-1; format: cell-based; conditions: 0.1, 1, 5 μmol/L
Description: as §1

AXIN2 = experiment: Immunostaining of AXIN2 in SW480 cells; format: cell-based; conditions: 0.5 μmol/L, 18 hours, confocal microscopy
Description: as §2

Row | half-life at 3 μM [1] | SMILES | IC50 (STF/REN HEK293 cells) | other results
1 | 37.6 min | COc1cc(-c2nnc(/C=C/c3nnc(-c4ccncc4)n3-c3ccccc3Cl)o2)ccn1 [Compound (3), 4-(4-(2-chlorophenyl)-5-((E)-2-(5-(2-methoxypyridin-4-yl)-1,3,4-oxadiazol-2-yl)vinyl)-4H-1,2,4-triazol-3-yl)pyridine] | 190 nM | 
2 | 212 min | CCOc1ccc(-c2nnc(/C=C/c3nnc(-c4ccnc(OC)c4)o3)n2-c2ccccc2Cl)nc1 [Compound (13), 2-(4-(2-chlorophenyl)-5-((E)-2-(5-(2-methoxypyridin-4-yl)-1,3,4-oxadiazol-2-yl)vinyl)-4H-1,2,4-triazol-3-yl)-5-ethoxypyridine] | 110 nM | 
3 | 128 min | Oc1cc(-c2nnc(/C=C/c3nnc(-c4ccc(F)cc4)n3-c3ccccc3Cl)o2)ccn1 [(8)] | 6300 nM | 
4 |  | CS(=O)(=O)c1ccc(-c2nnc(C#Cc3nnc(-c4ccc(C#N)cc4)o3)n2-c2ccccc2Cl)nc1 [Compound (33), 4-{5-[4-(2-Chloro-phenyl)-5-(5-methanesulfonyl-pyridin-2-yl)-4H-[1,2,4]triazol-3-ylethynyl]-[1,3,4]oxadiazol-2-yl}-benzonitrile] | 3600 nM | 
5 | 371 min | CS(=O)(=O)c1ccc(-c2nnc(/C=C/c3nnc(-c4ccc(Cl)cc4)o3)n2-c2ccccc2Cl)nc1 [Compound (14), 2-(4-(2-chlorophenyl)-5-((E)-2-(5-(4-chlorophenyl)-1,3,4-oxadiazol-2-yl)vinyl)-4H-1,2,4-triazol-3-yl)-5-(methylsulfonyl)pyridine] | 40 nM | 
6 |  | CS(=O)(=O)c1ccc(-c2nnc(/C(F)=C(\F)c3nnc(-c4ccc(C#N)cc4)o3)n2-c2ccccc2Cl)nc1 [Compound (58), 4-(5-{2-[4-(2-Chloro-phenyl)-5-(5-methanesulfonyl-pyridin-2-yl)-4H-[1,2,4]triazol-3-yl]-1,2-difluoro-vinyl}-[1,3,4]oxadiazol-2-yl)-benzonitrile] | > 10000 nM | 
7 | 5.41 min | COc1cc(-c2nnc(/C=C/c3nnc(-c4nc(C)no4)n3-c3ccccc3Cl)o2)ccn1 [Compound (5), 4-(5-((E)-2-(4-(2-chlorophenyl)-5-(3-methyl-1,2,4-oxadiazol-5-yl)-4H-1,2,4-triazol-3-yl)vinyl)-1,3,4-oxadiazol-2-yl)-2-methoxypyridine] | > 10000 nM | 
8 | 162 min | COc1cc(-c2nnc(/C=C/c3nnc(-c4ccc(Cl)cc4Cl)n3-c3ccccc3Cl)o2)ccn1 [Compound (1), 4-(5-((E)-2-(5-(2,4-dichlorophenyl)-4-(2-chlorophenyl)-4H-1,2,4-triazol-3-yl)vinyl)-1,3,4-oxadiazol-2-yl)-2-methoxypyridine] | 940 nM | 
9 | 44.9 min | COc1cc(-c2nnc(/C=C/c3nnc(-c4ccc(Cl)cn4)n3-c3ccccc3Cl)o2)ccn1 [Compound (4), 5-chloro-2-(4-(2-chlorophenyl)-5-((E)-2-(5-(2-methoxypyridin-4-yl)-1,3,4-oxadiazol-2-yl)vinyl)-4H-1,2,4-triazol-3-yl)pyridine] | 240 nM | 
10 | 37.1 min | COc1cc(-c2nnc(/C=C/c3nnc(-c4ccc(S(C)(=O)=O)cn4)n3-c3ccccc3Cl)o2)ccn1 [Compound (12), 2-(4-(2-chlorophenyl)-5-((E)-2-(5-(2-methoxypyridin-4-yl)-1,3,4-oxadiazol-2-yl)vinyl)-4H-1,2,4-triazol-3-yl)-5-(methylsulfonyl)pyridine] | 70 nM | 
11 |  | CS(=O)(=O)c1ccc(-c2nnc(/C=C/c3nnc(-c4ccc(C#N)cc4)o3)n2-c2ccc(OC(F)(F)F)cc2Cl)nc1 [Compound (56)] | 390 nM | 
12 |  | N#Cc1ccc(-c2nnc(/C=C/c3nnc(-c4ccc(OCC(F)(F)F)cn4)n3-c3ccccc3Cl)o2)cc1 [Compound (57), 4-[5-(2-{4-(2-Chloro-phenyl)-5-[5-(2,2,2-trifluoro-ethoxy)-pyridin-2-yl]-4H-[1,2,4]triazol-3-yl}-vinyl)-[1,3,4]oxadiazol-2-yl]-benzonitrile] | 100 nM | 
13 |  | COc1cc(C(=O)NNC(=O)/C=C/c2nnc(-c3ccc(F)cc3)n2-c2ccccc2Cl)ccn1 [(7)] | > 10000 nM | 
14 |  | CS(=O)(=O)c1ccc(-c2nnc(/C=C/c3nnc(-c4ccc(C#N)cc4)o3)n2-c2ccccc2Cl)nc1 [Compound (10), (E)-4-(5-(2-(4-(2-chlorophenyl)-5-(5-(methylsulfonyl)pyridin-2-yl)-4H-1,2,4-triazol-3-yl)vinyl)-1,3,4-oxadiazol-2-yl)benzonitrile] | 50 nM | cell growth inhibition (COLO320DM cells): dose-dependent growth inhibition; cell growth inhibition (HT29 cells): dose-dependent growth inhibition; cell growth inhibition (HCT-15 cells): dose-dependent growth inhibition; cell growth inhibition (WiDr cells): dose-dependent growth inhibition; nuclear β-catenin (β-catenin): strong reduction; total β-catenin (β-catenin): general reduction; inhibition of PARP1 (PARP1; at doses up to 20 μmol/L): no inhibition; IC50 (PARP1; in vitro, table, read-out: IC50 value, PARP): > 20000 nM; cell growth inhibition (COLO205 cells): dose-dependent growth inhibition; cell growth inhibition (RKO cells): did not; cell growth inhibition (DLD-1 cells): dose-dependent growth inhibition; levels of cytoplasmic AXIN2 (AXIN2): significantly increased
15 | 59.6 min | COc1cc(-c2nnc(/C=C/c3nnc(-c4ccncn4)n3-c3ccccc3Cl)o2)ccn1 [Compound (11), 4-(4-(2-chlorophenyl)-5-((E)-2-(5-(2-methoxypyridin-4-yl)-1,3,4-oxadiazol-2-yl)vinyl)-4H-1,2,4-triazol-3-yl)pyrimidine] | 80 nM | 
16 | 48 min | COc1cc(-c2nnc(/C=C/c3nnc(-c4ccc(F)cc4)n3-c3ccccc3Cl)o2)ccn1 [(6)] | 1200 nM | 
17 | 224 min | COc1cc(-c2nnc(/C=C/c3nnc(-c4ccc(S(C)(=O)=O)cc4)n3-c3ccccc3Cl)o2)ccn1 [Compound (2), 4-(5-((E)-2-(4-(2-chlorophenyl)-5-(4-(methylsulfonyl)phenyl)-4H-1,2,4-triazol-3-yl)vinyl)-1,3,4-oxadiazol-2-yl)-2-methoxypyridine] | 280 nM | 
